Results on 15 compounds are retold here after US6534652B2, “Intermediates for the preparation of substituted 1,2,3,4-tetrahydronaphthalene derivatives” (AstraZeneca AB, priority 1997, dated 2003).

As for `CCCCOc1ccc(C(=O)N[C@@H]2CCc3c(O)ccc(N4CCN(C)CC4)c3C2)cc1` [Example 11, (R)-N-[5-Hydroxy-8-(4-methylpiperazin-1-yl)-1,2,3,4-tetrahydro-2-naphthyl]-4-butoxybenzamide], the melting point is 125 °C (dec.).

Consider `O=C(N[C@@H]1CCc2c(Br)ccc(N3CCNCC3)c2C1)c1ccc(N2CCOCC2)cc1` [Example 17, (R)-N-[5-Bromo-8-(piperazin-1-yl)-1,2,3,4-tetrahydro-2-naphthyl]-4-morpholinobenzamide], for which the melting point was 228 to 229 °C.

Take `CN1CCN(c2ccc(Br)c3c2C[C@H](NC(=O)c2ccc(N4CCOCC4)cc2)CC3)CC1` [Example 20, (R)-N-[5-Bromo-8-(4-methylpiperazin-1-yl)-1,2,3,4-tetrahydro-2-naphthyl]-4-morpholinobenzamide]: the melting point lay in the range of 245 to 246 °C.

For `COc1ccc(N2CCN(C)CC2)c2c1CC[C@@H](NC(=O)c1ccc(N3CCOCC3)cc1)C2` [Example 25, (R)-N-[5-Methoxy-8-(4-methylpiperazin-1-yl)-1,2,3,4-tetrahydro-2-naphthyl]-4-morpholinobenzamide], the melting point lay within 237 to 238 °C.

On to `CN1CCN(c2ccc(O)c3c2C[C@H](NC(=O)c2ccc(C#N)cc2)CC3)CC1` [Example 26, (R)-N-[5-Hydroxy-8-(4-methylpiperazin-1-yl)-1,2,3,4-tetrahydro-2-naphthyl]-4-cyanobenzamide], for which the melting point stood at 144 °C.

`COc1ccc(N2CCN(C)CC2)c2c1CC[C@@H](NC(=O)c1ccc(C(=O)N3CCOCC3)cc1)C2` [Example 27, (R)-N-[5-Methoxy-8-(4-methylpiperazin-1-yl)-1,2,3,4-tetrahydro-2-naphthyl]-4-morpholinocarbonylbenzamide] yielded a melting point of 209 to 210 °C.

In turn, `CN1CCN(c2ccc(Br)c3c2C[C@H](NC(=O)c2ccc(C(=O)N4CCOCC4)cc2)CC3)CC1` [Example 28, (R)-N-[5-Bromo-8-(4-methylpiperazin-1-yl)-1,2,3,4-tetrahydro-2-naphthyl]-4-morpholinocarbonylbenzamide] registered a melting point of 228 to 230 °C.

Regarding `COc1ccc(C2CCN(C)CC2)c2c1CC[C@@H](NC(=O)c1ccc(N3CCOCC3)cc1)C2` [Example 38, (R)-N-[5-Methoxy-8-(1-methylpiperidin-4-yl)-1,2,3,4-tetrahydro-2-naphthyl]-4-morpholinobenzamide], the melting point is 237 to 242 °C (dec.).

For `CCc1ccc(N2CCN(C)CC2)c2c1CC[C@@H](NC(=O)c1ccc(N3CCOCC3)cc1)C2` [Example 42, (R)-N-[5-Ethyl-8-(4-methylpiperazin-1-yl)-1,2,3,4-tetrahydro-2-naphthyl]-4-morpholinobenzamide], the melting point is 234 °C (dec.).

Consider `CN1CCN(c2ccc(OC(F)F)c3c2C[C@H](NC(=O)c2ccc(N4CCOCC4)cc2)CC3)CC1` [Example 46, (R)-N-[5-Difluoromethoxy-8-(4-methylpiperazin-1-yl)-1,2,3,4-tetrahydro-2-naphthyl]-4-morpholinobenzamide], for which the melting point lay in the range of 222 to 223 °C.

In the case of `CN1CCN(c2ccc(Br)c3c2C[C@H](NC(=O)c2ccc(C(F)(F)F)cc2)CC3)CC1` [Example 48, (R)-N-[5-Bromo-8-(4-methylpiperazin-1-yl)-1,2,3,4-tetrahydro-2-naphthyl]-4-trifluoromethylbenzamide], the melting point was in the range of 229 to 230 °C.

Turning to `COCc1ccc(N2CCN(C)CC2)c2c1CC[C@@H](NC(=O)c1ccc(N3CCOCC3)cc1)C2` [Example 51, (R)-N-[5-Methoxymethyl-8-(4-methylpiperazin-1-yl)-1,2,3,4-tetrahydro-2-naphthyl]-4-morpholinobenzamide], the melting point was 200 °C (dec.).

`CN1CCN(c2ccc(O)c3c2C[C@H](NC(=O)c2ccc(N4CCOCC4)cc2)CC3)CC1` [Example 60, (R)-N-[5-Hydroxy-8-(4-methylpiperazin-1-yl)-1,2,3,4-tetrahydro-2-naphthyl]-4-morpholinobenzamide] showed a melting point of 84 to 88 °C.

In the case of `Cc1ccc(N2CCNCC2)c2c1CC[C@@H](NC(=O)c1ccc(N3CCOCC3)cc1)C2` [Example 67, (R)-N-[5-Methyl-8-(piperazin-1-yl)-1,2,3,4-tetrahydro-2-naphthyl]-4-morpholinobenzamide], the melting point lay within 207 to 210 °C.

Consider `Cc1ccc(N2CCN(C)CC2)c2c1CC[C@@H](NC(=O)c1ccc(Cl)cc1)C2` [Example 68, (R)-N-[5-Methyl-8-(4-methylpiperazin-1-yl)-1,2,3,4-tetrahydro-2-naphthyl]-4-chlorobenzamide], for which the melting point was 210 to 212 °C.
